Measured values: patent US4999374A, “Veterinary treatment” (priority 1987, dated 1991)
Like-named read-outs stand apart in the source and are kept apart here.

What was measured:
T. hyodysenteriae [1] = test: Comparative efficacy of M139603 and salinomycin in experimentally infected mice (Example 3, Table 3); assay type: in vivo, mice (strain MF-1); settings: 30 ppm feed
From the text: (§1) The infection leads to varying degrees of caecitis, the lesions of which are apparent in animals killed on or about the sixth day post-infection. Caecal specimens examined by bacteriological culture techniques applicable for enumeration of organisms reveal the presence of high populations of T.hyodysenteriae. This disease-model was used in experiments to compare the efficacy of M139603 with that of salinomycin, lasalocid and monensin in suppressing the infection.
(§2) In this study, the efficacy of M139603 was tested at 25 ppm feed and that of monensin (Eli Lilly) at 50 or 100 ppm. Groups of infected mice, five per group, were offered the drugs in the feed on five continuous days before killing. Caecal materials were subjected to bacteriological examination to enumerate the populations of viable treponemes per gram of material. […] The group mean in respect of the unmedicated groups was 7.9 cfu/g.
In this study, the efficacy of M139603 was tested at 30 ppm and that of salinomycin at 30, 40 or 60 ppm feed. The mouse-groups and test-procedureswere simi-ar to those applied under Example 2 above.

T. hyodysenteriae [2] = test: Comparative efficacy of M139603 and monensin in experimentally infected mice (Example 2, Table 2); assay type: in vivo, mice (strain MF-1); settings: 25 ppm feed
From the text: as §1, §2

T. hyodysenteriae (P18a) = test: Efficacy of M139603 in pigs at low doses (Example 7, Table 7); assay type: in vivo; design: Group weight / Ave. daily weight-gain: unit not given here; settings: for Mortality (+ culls): 42 days, 6 pigs
Procedure: In this studY two groups (Gp.1 and Gp.2) of pigs, six per group, were experimentally infected with a pathogenic strain of T. hyodysenteriae (P18a, IRAD(Institute for Animal Health), Compton, Berks, U.K.) by oro-gastric inoculation of 50 ml of a culture suspension (1×10^7cfu/ml) of the organism into each animal. From post-infection day (PID) to PID 35 the animals in Gp. 1 were offered ad lib a feed comprising "Kwikwean" meal (Rank, Hovis, McDougall Research Ltd; containing no antibiotics) incorporated with M139603 at 25 ppm. Gp.2 remained on unmedicated feed throughout the trial. Drug efficacy was measured primarily on the basis of the number of diarrhoea or dysentery days in relation to pig-days within a group and on the average daily weight gain per pig, in each group over the period of the trial. The daily gain was calculated by dividing group gain at end of trial (PID 35) by the total number of pig-days from PID 1 to PID 35. […] In the experiment the pigs were exposed to high infective doses of the organism a day before the introduction of the drug. Under normal circumstances preventive dose-regimes are applied on animals at risk and not on those already infected.
In this study, eighteen pigs were allocated to three equal groups (Gp.1-3). Feed incorporated with the drug at 25 or 15 ppm was offered to Gp.1 and 2, respectively, on thirty-eight consecutive days commencing six hours pre-infection. Gp.3 remained on unmedicated feed throughout the trial. The pigs were infected with T. hyodysenteriae (strain "P18a") using methods and materials similar to those applied in Example 5. However, seven days following this exposure (post-infection day 7), over a period of seven consecutive days, the pigs in Gp. 1 and 2 were allowed to co-mingle for about two hours each day with some dysenteric "seeder pigs" in a nearby pen. Drug efficacy, as in Example 6, was assessed primarily on the basis of the total number of diarrhoea/dysentery days per group and on the basis of average daily weight gain per pig per group. The results are indicative of the good efficacy of M139603 even at a level as low as 15 ppm feed in preventing swine dysentery. At this dose-level, the daily drug-intake is unlikely to be more than 0.9 mg/kg/body-weight, if daily feed is calculated at 6% of a pig's body-weight.
In this experiment twenty-four pigs were split into four equal groups (Gp. 1-4). Gp. 1 and 2 were offered the drug at 15 or 10 ppm feed on forty-two consecutive days, commencing six hours pre-infection. Gp. 3 (infected) and Gp. 4 (uninfected) remained on unmedicated feed throughout. The infection procedures with T. hyodysenteriae (P18a) were similar to those applied above. Only three groups, Gp. 1, 2 and 3 were infected. Gp. 4 remained uninfected in a well-isolated pen throughout the trial period. Three days following the initial exposure to the infection (post-infection day 3), over a period of five continuous days, the pigs in Gp. 1, 2 and 3 were allowed to co-mingle with dysenteric "seeder pigs" housed in a separate pen. Drug efficacy was measured using the criteria applied in the Examples 5 and 6. […] Thereafter, the differences narrowed, primarily due to the placement of Gp. 3 on tiamulin to prevent further weight losses, and consequent deaths. Despite the number of diarrhoea days observed for Gp. 1 (6.8%) and Gp.

T. hyodysenteriae [3] = test: MIC of M139603 against thirteen T. hyodysenteriae isolates vs salinomycin and dimetridazole (Example 1, Table 1); assay type: cell-based, Treponema hyodysenteriae; settings: for MIC: Brachyspira hyodysenteriae
Procedure: The minimum inhibitory concentration of M139603 was tested in parallel with dimetridazole (May & Baker) and the growth-promoting polyether antibiotic salinomycin (Hoechst) against thirteen strains of T. hyodysenteriae.

CO[C@@H](C)[C@H]1C[C@H](C)[C@H]([C@@H](C)/C=C/[C@@H]2CC[C@@H](C)[C@H](/C(=C/[C@H]3CCC[C@@H](C)[C@@H]3[C@H](C)C(=O)C3=C(O)COC3=O)CO)O2)O1 [Analogue M139603, tetronasin]
Suppression of infection (T. hyodysenteriae [1]): suppressed the infection | Mean (log10) viable treponemes per gram caecum & contents (T. hyodysenteriae [1]; 5 days, group mean): 0 log10 per gram | Viable treponemes per gram caecum & contents (T. hyodysenteriae [1]; 5 days, individual mice): negative | Suppression of infection (T. hyodysenteriae [2]): suppressed the infection | Mean (log10) viable treponemes per gram caecum & contents (T. hyodysenteriae [2]; 5 days, group mean): 0 log10 per gram | Viable treponemes per gram caecum & contents (T. hyodysenteriae [2]; 5 days, individual mice, limit of detection <1.0 × 10^2): negative | Ave. daily weight-gain (T. hyodysenteriae (P18a); 10 ppm feed group, post-infection day 44 to 57, inclusive (after withdrawal)): 0.65 | Mortality (+ culls) (T. hyodysenteriae (P18a); 10 ppm feed): 0 | Ave. daily weight-gain (T. hyodysenteriae (P18a); 10 ppm feed, day 4 pre-infection to day 22 post-infection): 0.59 | Percent diarrhoea/dysentery days (T. hyodysenteriae (P18a); 10 ppm feed, post-infection day 1 to 21): 4.8% | No. diarrhoea/dysentery days (T. hyodysenteriae (P18a); 10 ppm feed, post-infection day 1 to 21 (126 pig-days)): 6 days | Percent diarrhoea/dysentery days (T. hyodysenteriae (P18a); 10 ppm feed, post-infection day 1 to 42): 11.9% | No. diarrhoea/dysentery days (T. hyodysenteriae (P18a); 10 ppm feed, post-infection day 1 to 42 (252 pig-days)): 30 days | Group weight (T. hyodysenteriae (P18a); 10 ppm feed, post-infection day 21, start 66.0): 161.0 | Ave. daily weight-gain (T. hyodysenteriae (P18a); 10 ppm feed, post-infection day 23 to 43, inclusive): 0.83 | Group weight (T. hyodysenteriae (P18a); 10 ppm feed, post-infection day 43 (1 day from withdrawal of medication)): 265.0 | Average daily weight-gain vs uninfected, unmedicated group (T. hyodysenteriae (P18a); 15 or 10 ppm feed): exceeded that recorded for pigs in the uninfected, unmedicated group | Weight gain vs unmedicated, infected group (T. hyodysenteriae (P18a); 15 or 10 ppm feed, by post-infection day 21): Significant weight gain differences | Ave. daily weight-gain (T. hyodysenteriae (P18a); 15 ppm feed group, post-infection day 44 to 57, inclusive (after withdrawal)): 0.86 | Mortality (+ culls) (T. hyodysenteriae (P18a); 15 ppm feed): 0 | Ave. daily weight-gain (T. hyodysenteriae (P18a); 15 ppm feed, day 4 pre-infection to day 22 post-infection): 0.56 | Percent diarrhoea/dysentery days (T. hyodysenteriae (P18a); 15 ppm feed, post-infection day 1 to 21): 4% | No. diarrhoea/dysentery days (T. hyodysenteriae (P18a); 15 ppm feed, post-infection day 1 to 21 (126 pig-days)): 5 days | Percent diarrhoea/dysentery days (T. hyodysenteriae (P18a); 15 ppm feed, post-infection day 1 to 42): 6.8% | No. diarrhoea/dysentery days (T. hyodysenteriae (P18a); 15 ppm feed, post-infection day 1 to 42 (252 pig-days)): 17 days | Group weight (T. hyodysenteriae (P18a); 15 ppm feed, post-infection day 21, start 63.7): 153.7 | Ave. daily weight-gain (T. hyodysenteriae (P18a); 15 ppm feed, post-infection day 23 to 43, inclusive): 0.81 | Group weight (T. hyodysenteriae (P18a); 15 ppm feed, post-infection day 43 (1 day from withdrawal of medication)): 225.5 | Group weight (T. hyodysenteriae (P18a); 15 ppm feed, post-infection day 57 (15 days from withdrawal of medication)): 327.5 | Feed level found to be effective (lowest) (T. hyodysenteriae (P18a); in the feed): 10 ppm | MIC (T. hyodysenteriae [3]; isolate B78, read-out: MIC): 0.5 µg/mL | MIC (T. hyodysenteriae [3]; isolate S82/6, read-out: MIC): 0.2 µg/mL | MIC (T. hyodysenteriae [3]; isolate S82/7, read-out: MIC): 0.2 µg/mL | MIC (T. hyodysenteriae [3]; isolate S83/1, read-out: MIC): < 0.1 µg/mL | MIC (T. hyodysenteriae [3]; isolate S83/2, read-out: MIC): 0.5 µg/mL | MIC (T. hyodysenteriae [3]; isolate S83/5, read-out: MIC): < 0.1 µg/mL | MIC (T. hyodysenteriae [3]; isolate S85/1, read-out: MIC): 0.2 µg/mL | MIC (T. hyodysenteriae [3]; isolate S85/2, read-out: MIC): 0.2 µg/mL | MIC (T. hyodysenteriae [3]; isolate S85/3, read-out: MIC): 0.2 µg/mL | MIC (T. hyodysenteriae [3]; isolate S85/8, read-out: MIC): 0.2 µg/mL | MIC (T. hyodysenteriae [3]; isolate S85/9, read-out: MIC): < 0.1 µg/mL | MIC (T. hyodysenteriae [3]; isolate S86/1, read-out: MIC): < 0.1 µg/mL | MIC (T. hyodysenteriae [3]; isolate S86/2, read-out: MIC): 0.2 µg/mL | MIC (T. hyodysenteriae [3]; mean of 13 strains (table), read-out: Mean MIC): 0.215 µg/mL | MIC compared with salinomycin (statistical analysis) (T. hyodysenteriae [3]; thirteen strains): significantly (p<0.001) lower MIC
